Reference: patent US5530126A, “Process for the preparation of substituted 6-(pyrazol-3yl)-1,4-benzoxazin-3-ones” (Monsanto Company, priority 1994, dated 1996)

Assays:
Type in all cases: in vivo
Cocklebur [1] = test: Post-emergence herbicide test; details: Xanthium strumarium, read-out: % plant inhibition (Cobu); for inhibition at 11210 g/ha: 11.21 kg/ha; for inhibition at 1120 g/ha: 1.12 kg/ha
Procedure, shortened: (§1)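 Percent growth inhibition against untreated plants, assessed roughly 11 days (range 10–14) after treatment and in some cases at about 25 days. Foliar application was to two- to three-week-old greenhouse plants at 1870 L/Ha spray volume.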

Velvetleaf [2] = test: Post-emergence herbicide test; details: Abutilon theophrasti, read-out: % plant inhibition (Vele); for inhibition at 11210 g/ha: 11.21 kg/ha; for inhibition at 1120 g/ha: 1.12 kg/ha
Procedure, shortened: as §1

Morningglory [3] = test: Post-emergence herbicide test; details: Ipomoea, read-out: % plant inhibition (Mogl); for inhibition at 11210 g/ha: 11.21 kg/ha; for inhibition at 1120 g/ha: 1.12 kg/ha
Procedure, shortened: as §1

Barnyardgrass [4] = test: Post-emergence herbicide test; details: Echinochloa crus-galli, read-out: % plant inhibition (Bygr); for inhibition at 11210 g/ha: 11.21 kg/ha; for inhibition at 1120 g/ha: 1.12 kg/ha
Procedure, shortened: as §1

Downy Brome [5] = test: Post-emergence herbicide test; details: Bromus tectorum, read-out: % plant inhibition (Dobr); for inhibition at 11210 g/ha: 11.21 kg/ha; for inhibition at 1120 g/ha: 1.12 kg/ha
Procedure, shortened: as §1

Seedling johnsongrass [6] = test: Post-emergence herbicide test; details: Sorghum halepense, read-out: % plant inhibition (Sejg); for inhibition at 11210 g/ha: 11.21 kg/ha; for inhibition at 1120 g/ha: 1.12 kg/ha
Procedure, shortened: as §1

Wild buckwheat [7] = test: Post-emergence herbicide test; details: Fallopia convolvulus, read-out: % plant inhibition (Wibw); for inhibition at 11210 g/ha: 11.21 kg/ha; for inhibition at 1120 g/ha: 1.12 kg/ha
Procedure, shortened: as §1

Yellow nutsedge [8] = test: Post-emergence herbicide test; details: Cyperus, read-out: % plant inhibition (Yens); for inhibition at 11210 g/ha: 11.21 kg/ha; for inhibition at 1120 g/ha: 1.12 kg/ha
Procedure, shortened: as §1

Annual bluegrass [9] = test: Post-emergence herbicide test; details: read-out: % plant inhibition (Anbg); for inhibition at 11210 g/ha: 11.21 kg/ha; for inhibition at 1120 g/ha: 1.12 kg/ha
Procedure, shortened: as §1

Indian Mustard [10] = test: Post-emergence herbicide test; details: Brassica juncea, read-out: % plant inhibition (Inmu); for inhibition at 11210 g/ha: 11.21 kg/ha; for inhibition at 1120 g/ha: 1.12 kg/ha
Procedure, shortened: as §1

Cocklebur [11] = test: Pre-emergence herbicide test; details: Xanthium strumarium, read-out: % plant inhibition (Cobu); for inhibition at 11210 g/ha: 11.21 kg/ha; for inhibition at 1120 g/ha: 1.12 kg/ha
Procedure, shortened: (§2)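 Percent growth inhibition rated roughly 11 days (range 10–14) after treatment, with pans held on a greenhouse bench and watered from below. Compound in acetone or water was sprayed onto the seed bed before covering with a layer of untreated topsoil.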

Velvetleaf [12] = test: Pre-emergence herbicide test; details: Abutilon theophrasti, read-out: % plant inhibition (Vele); for inhibition at 11210 g/ha: 11.21 kg/ha; for inhibition at 1120 g/ha: 1.12 kg/ha
Procedure, shortened: as §2

Morningglory [13] = test: Pre-emergence herbicide test; details: Ipomoea, read-out: % plant inhibition (Mogl); for inhibition at 11210 g/ha: 11.21 kg/ha; for inhibition at 1120 g/ha: 1.12 kg/ha
Procedure, shortened: as §2

Barnyardgrass [14] = test: Pre-emergence herbicide test; details: Echinochloa crus-galli, read-out: % plant inhibition (Bygr); for inhibition at 11210 g/ha: 11.21 kg/ha; for inhibition at 1120 g/ha: 1.12 kg/ha
Procedure, shortened: as §2

Downy Brome [15] = test: Pre-emergence herbicide test; details: Bromus tectorum, read-out: % plant inhibition (Dobr); for inhibition at 11210 g/ha: 11.21 kg/ha; for inhibition at 1120 g/ha: 1.12 kg/ha
Procedure, shortened: as §2

Seedling johnsongrass [16] = test: Pre-emergence herbicide test; details: Sorghum halepense, read-out: % plant inhibition (Sejg); for inhibition at 11210 g/ha: 11.21 kg/ha; for inhibition at 1120 g/ha: 1.12 kg/ha
Procedure, shortened: as §2

Wild buckwheat [17] = test: Pre-emergence herbicide test; details: Fallopia convolvulus, read-out: % plant inhibition (Wibw); for inhibition at 11210 g/ha: 11.21 kg/ha; for inhibition at 1120 g/ha: 1.12 kg/ha
Procedure, shortened: as §2

Yellow nutsedge [18] = test: Pre-emergence herbicide test; details: Cyperus, read-out: % plant inhibition (Yens); for inhibition at 11210 g/ha: 11.21 kg/ha; for inhibition at 1120 g/ha: 1.12 kg/ha
Procedure, shortened: as §2

Annual bluegrass [19] = test: Pre-emergence herbicide test; details: read-out: % plant inhibition (Anbg); for inhibition at 11210 g/ha: 11.21 kg/ha; for inhibition at 1120 g/ha: 1.12 kg/ha
Procedure, shortened: as §2

Indian Mustard [20] = test: Pre-emergence herbicide test; details: Brassica juncea, read-out: % plant inhibition (Inmu); for inhibition at 11210 g/ha: 11.21 kg/ha; for inhibition at 1120 g/ha: 1.12 kg/ha
Procedure, shortened: as §2

| Structure (SMILES) | inhibition at 1120 g/ha (Cocklebur [1]) [%] | inhibition at 1120 g/ha (Velvetleaf [2]) [%] | inhibition at 1120 g/ha (Morningglory [3]) [%] | inhibition at 1120 g/ha (Barnyardgrass [4]) [%] | inhibition at 1120 g/ha (Downy Brome [5]) [%] | inhibition at 1120 g/ha (Seedling johnsongrass [6]) [%] | inhibition at 1120 g/ha (Wild buckwheat [7]) [%] | inhibition at 1120 g/ha (Yellow nutsedge [8]) [%] | inhibition at 1120 g/ha (Annual bluegrass [9]) [%] | inhibition at 1120 g/ha (Indian Mustard [10]) [%] | inhibition at 1120 g/ha (Cocklebur [11]) [%] | inhibition at 1120 g/ha (Velvetleaf [12]) [%] | inhibition at 1120 g/ha (Morningglory [13]) [%] | inhibition at 1120 g/ha (Barnyardgrass [14]) [%] | inhibition at 1120 g/ha (Downy Brome [15]) [%] | inhibition at 1120 g/ha (Seedling johnsongrass [16]) [%] | inhibition at 1120 g/ha (Wild buckwheat [17]) [%] | inhibition at 1120 g/ha (Yellow nutsedge [18]) [%] | inhibition at 1120 g/ha (Annual bluegrass [19]) [%] | inhibition at 1120 g/ha (Indian Mustard [20]) [%] | also measured |
| --- | --- | --- | --- | --- | --- | --- | --- | --- | --- | --- | --- | --- | --- | --- | --- | --- | --- | --- | --- | --- | --- |
| COc1cc(-c2c(Cl)c(C(F)(F)F)nn2C)c(F)cc1[N+](=O)[O-] [Compound 72] |  |  |  |  |  |  |  |  |  |  |  |  |  |  |  |  |  |  |  |  | inhibition at 11210 g/ha (Cocklebur [1]): 60%; inhibition at 11210 g/ha (Velvetleaf [2]): 90%; inhibition at 11210 g/ha (Morningglory [3]): 30%; inhibition at 11210 g/ha (Barnyardgrass [4]): 50%; inhibition at 11210 g/ha (Downy Brome [5]): 20%; inhibition at 11210 g/ha (Seedling johnsongrass [6]): 10%; inhibition at 11210 g/ha (Wild buckwheat [7]): 90%; inhibition at 11210 g/ha (Yellow nutsedge [8]): 10%; inhibition at 11210 g/ha (Annual bluegrass [9]): 10%; inhibition at 11210 g/ha (Indian Mustard [10]): 30%; inhibition at 11210 g/ha (Cocklebur [11]): 20%; inhibition at 11210 g/ha (Velvetleaf [12]): 90%; inhibition at 11210 g/ha (Morningglory [13]): 40%; inhibition at 11210 g/ha (Barnyardgrass [14]): 60%; inhibition at 11210 g/ha (Downy Brome [15]): 20%; inhibition at 11210 g/ha (Seedling johnsongrass [16]): 60%; inhibition at 11210 g/ha (Wild buckwheat [17]): 90%; inhibition at 11210 g/ha (Yellow nutsedge [18]): 0%; inhibition at 11210 g/ha (Annual bluegrass [19]): 20%; inhibition at 11210 g/ha (Indian Mustard [20]): 90% |
| Cn1nc(-c2cc(C(Br)Br)c(Cl)cc2F)c(Cl)c1C(F)(F)F [Compound 132, 4-chloro-3-[4-chloro-5-(dibromomethyl)-2-fluorophenyl]-1-methyl-5-(trifluoromethyl)-1H-pyrazole] |  |  |  |  |  |  |  |  |  |  |  |  |  |  |  |  |  |  |  |  | inhibition at 11210 g/ha (Cocklebur [1]): 100%; inhibition at 11210 g/ha (Velvetleaf [2]): 100%; inhibition at 11210 g/ha (Morningglory [3]): 100%; inhibition at 11210 g/ha (Barnyardgrass [4]): 100%; inhibition at 11210 g/ha (Downy Brome [5]): 80%; inhibition at 11210 g/ha (Seedling johnsongrass [6]): 100%; inhibition at 11210 g/ha (Wild buckwheat [7]): 100%; inhibition at 11210 g/ha (Yellow nutsedge [8]): 30%; inhibition at 11210 g/ha (Annual bluegrass [9]): 60%; inhibition at 11210 g/ha (Indian Mustard [10]): 100%; inhibition at 11210 g/ha (Cocklebur [11]): 70%; inhibition at 11210 g/ha (Velvetleaf [12]): 100%; inhibition at 11210 g/ha (Morningglory [13]): 100%; inhibition at 11210 g/ha (Barnyardgrass [14]): 90%; inhibition at 11210 g/ha (Downy Brome [15]): 80%; inhibition at 11210 g/ha (Seedling johnsongrass [16]): 70%; inhibition at 11210 g/ha (Wild buckwheat [17]): 100%; inhibition at 11210 g/ha (Yellow nutsedge [18]): 30%; inhibition at 11210 g/ha (Annual bluegrass [19]): 60%; inhibition at 11210 g/ha (Indian Mustard [20]): 90% |
| CC(C#N)c1cc(-c2nn(C)c(C(F)(F)F)c2Cl)c(F)cc1Cl (stereo not shown) [Compound 106] | 60 | 100 | 100 | 60 | 20 | 40 | 90 | 10 | 30 | 60 | 20 | 80 | 60 | 80 | 80 | 80 | 100 | 0 | 30 | 90 |  |
| COc1cc(-c2nn(C)c(C(F)(F)F)c2Cl)c(F)cc1Br [Compound 94] | 80 | 100 | 90 | 100 | 100 | 90 | 100 | 10 | 90 | 80 | 60 | 100 | 90 | 100 | 100 | 100 | 100 | 20 | 100 | 100 |  |
| CC(C)OC(=O)COc1cc(-c2nn(C)c(C(F)(F)Cl)c2Cl)c(F)cc1Cl [Compound 285] | 100 | 100 | 100 | 70 | 40 | 50 | 100 | 40 | 30 | 100 | 80 | 100 | 100 | 50 | 0 | 0 | 80 | 0 | 0 | 10 |  |
